Test results reported in patent US20220211694A1, “QUINOLINE DERIVATIVES FOR TREATMENT OF HEAD AND NECK CANCER” (CHIA TAI TIANQING PHARMACEUTICAL GROUP CO., LTD., priority 2019, published 2022).
Counter-ions that a name gives are not always drawn.

How the values were obtained:
[1] = test system: head and neck adenocarcinoma; experiment: Clinical study of anlotinib hydrochloride capsules in recurrent/metastatic head and neck adenocarcinomas; assay type: in vivo, human; settings: patients with head and neck adenocarcinoma; 12 mg once daily orally, d1-14 of each 21-day cycle
[2] = test system: head and neck cancer; experiment: Clinical study of anlotinib with intensity modulated radiotherapy in previously untreated head and neck cancer; assay type: in vivo, human; settings: patients with head and neck cancer; anlotinib 10 mg/day combined with radiotherapy
Description: Previously untreated patients with pathologically confirmed head and neck cancer, specifically including ones with nasopharyngeal carcinoma, tonsil cancer, floor of mouth cancer, oral cancer, laryngeal cancer and hypopharyngeal cancer, were all received intensity modulated radiotherapy after administration of anlotinib. The administration regimens are detailed below. Anlotinib: administered about one week before radiotherapy, 10 mg/day for a three-cycle treatment, consecutively two-week treatment and then one-week interruption, and whether the medicine was administered continuously was determined according to the change in tumors after radiotherapy. The efficacy evaluation observation indexes include 3-year overall survival (OS), […] (DFS), 3-year distant metastasis rate and local control rate. Patient, pathologically diagnosed with tonsil cancer, starting taking anlotinib hydrochloride capsules on Oct. 10, 2018 once daily, orally before breakfast at a dose of 10 mg each time, with consecutively two-week treatment and then one-week interruption; starting receiving radiation therapy on Oct. 15, 2018. Patient, pathologically diagnosed with nasopharyngeal carcinoma, starting taking anlotinib hydrochloride capsules on Nov. […]

[3] = test system: human laryngeal squamous cell carcinoma Hep-2 cell line; experiment: MTT cell growth inhibition, Hep-2 cell line; assay type: cell-based; settings: MTT method, in vitro
Description: (§1) The test drugs were dissolved in dimethyl sulfoxide to prepare a 100 mmol/L stock solution, which was stored at −20° C. for later use. When in use, the stock solution was diluted with a DMEM serum culture medium to a desired concentration.
(§2) The human laryngeal squamous cell carcinoma Hep-2 cell line and the human laryngeal carcinoma TU212 cell line were separately cultured in a DMEM complete culture medium containing 10% fetal bovine serum and 0.1 g/L streptomycin and penicillin (the final concentration is 100 U·mL^−1), and the mixtures were incubated in an incubator at 37° C./5% CO2. When the cell fusion reached about 85%, the cells were mixed and digested using 0.02% EDTA and 0.25% trypsin, and then the cells were collected, centrifuged at 1000 r/min, and subcultured.
(§3) The IC50 value can be measured by a conventional method in the art (e.g., conventional MTT method), or can be measured by the following method (MTT method). […]
(§4) Half maximal inhibitory concentration IC50 was calculated according to inhibition rates at all concentrations using GraphPad Prism 5 software.

[4] = test system: human laryngeal carcinoma TU212 cell line; experiment: MTT cell growth inhibition, TU212 cell line; assay type: cell-based; settings: MTT method, in vitro
Description: as §1, §2, §3, §4

[5] = test system: human oral squamous cell carcinoma scc4 cell line; experiment: MTT cell growth inhibition, scc4 cell line; assay type: cell-based; settings: MTT method, in vitro
Description: as §1
(§5) The human oral squamous cell carcinoma scc4 cell line, the human oral squamous cell carcinoma CAL-27 cell line and the human oral squamous cell carcinoma HSC-4 cell line were separately cultured in a DMEM complete culture medium containing 10% fetal bovine serum and 0.1 g/L streptomycin and penicillin (the final concentration is 100 U·mL^−1), and the mixtures were incubated in an incubator at 37° C./5% CO2. When the cell confluence reached about 85%, the cells were mixed and digested using 0.02% EDTA and 0.25% trypsin, and then the cells were collected, centrifuged at 1000 r/min, and subcultured.
as §3, §4

[6] = test system: human oral squamous cell carcinoma CAL-27 cell line; experiment: MTT cell growth inhibition, CAL-27 cell line; assay type: cell-based; settings: MTT method, in vitro
Description: as §1, §5, §3, §4

[7] = test system: human oral squamous cell carcinoma HSC-4 cell line; experiment: MTT cell growth inhibition, HSC-4 cell line; assay type: cell-based; settings: MTT method, in vitro
Description: as §1, §5, §3, §4

Structure (SMILES) | clinical benefits [1] | clinical benefits [2] | effect on the proliferation of the human laryngeal squamous cell carcinoma cells [3] | effect on the proliferation of the human laryngeal carcinoma cells [4] | effect on the proliferation of the human oral squamous cell carcinoma cells [5] | effect on the proliferation of the human oral squamous cell carcinoma cells [6] | effect on the proliferation of the human oral squamous cell carcinoma cells [7]
COc1cc2c(Oc3ccc4[nH]c(C)cc4c3F)ccnc2cc1OCC1(N)CC1 [anlotinib, 1-[[[4-(4-fluoro-2-methyl-1H-indol-5-yl)oxy-6-methoxyquinolin-7-yl]oxy]methyl]cyclopropylamine] | had clinical benefits | had clinical benefits | – | – | – | – | –
COc1cc2c(Oc3ccc4[nH]c(C)cc4c3F)ccnc2cc1OCC1(N)CC1 [dihydrochloride of the compound I] | – | – | clear inhibitory effect | clear inhibitory effect | clear inhibitory effect | clear inhibitory effect | clear inhibitory effect
